Laboratory results published in patent US8940913B2, “Herbicides” (Syngenta Crop Protection, LLC, priority 2007, dated 2015).

Assays:
Format in all cases: in vivo
[1] = tested on: Alopecurus myosuroides (ALOMY); test: Pre-emergence herbicidal activity, glasshouse pot test; details: 480 h, rate 250 g/ha, evaluated 20 days later, 100=total damage to plant, 0=no damage to plant
Protocol: (§1) Monocotyledonous and dicotyledonous test plants were sown in standard soil in pots. After cultivation for one day (pre-emergence) or after 10 days cultivation (post-emergence) under controlled conditions in a glasshouse, the plants were sprayed with an aqueous spray solution derived from the formulation of the technical active ingredient in 0.6 ml acetone and 45 ml formulation solution containing 10.6% Emulsogen EL (Registry number 61791-12-6), 42.2% N-methylpyrrolidone, 42.2% dipropylene glycol monomethyl ether (Registry number 34590-94-8) and 0.2% X-77 (Registry number 11097-66-8). The test plants were then grown in a greenhouse under optimum conditions until, 15 days later for post-emergence and 20 days for pre-emergence, the test was evaluated (100=total damage to plant; 0=no damage to plant). Test Plants: Alopecurus myosuroides (ALOMY), Avena fatua (AVEFA), Lolium perenne (LOLPE), Setaria faberi (SETFA), Digitaria sanguinalis (DIGSA), Echinochloa crus-galli (ECHCG)

Avena fatua (AVEFA) [2] = test: as above; details: 480 h, rate 250 g/ha, evaluated 20 days later, 100=total damage to plant, 0=no damage to plant
Protocol: as §1

[3] = tested on: Digitaria sanguinalis (DIGSA); test: as above; details: 480 h, rate 250 g/ha, evaluated 20 days later, 100=total damage to plant, 0=no damage to plant
Protocol: as §1

[4] = tested on: Echinochloa crus-galli (ECHCG); test: as above; details: 480 h, rate 250 g/ha, evaluated 20 days later, 100=total damage to plant, 0=no damage to plant
Protocol: as §1

Lolium perenne (LOLPE) [5] = test: as above; details: 480 h, rate 250 g/ha, evaluated 20 days later, 100=total damage to plant, 0=no damage to plant
Protocol: as §1

Setaria faberi (SETFA) [6] = test: as above; details: 480 h, rate 250 g/ha, evaluated 20 days later, 100=total damage to plant, 0=no damage to plant
Protocol: as §1

[7] = tested on: Alopecurus myosuroides (ALOMY); test: Post-emergence herbicidal activity, glasshouse pot test; details: 360 h, rate 125 g/ha, evaluated 15 days later, 100=total damage to plant, 0=no damage to plant
Protocol: as §1

Avena fatua (AVEFA) [8] = test: as above; details: 360 h, rate 125 g/ha, evaluated 15 days later, 100=total damage to plant, 0=no damage to plant
Protocol: as §1

[9] = tested on: Digitaria sanguinalis (DIGSA); test: as above; details: 360 h, rate 125 g/ha, evaluated 15 days later, 100=total damage to plant, 0=no damage to plant
Protocol: as §1

[10] = tested on: Echinochloa crus-galli (ECHCG); test: as above; details: 360 h, rate 125 g/ha, evaluated 15 days later, 100=total damage to plant, 0=no damage to plant
Protocol: as §1

Lolium perenne (LOLPE) [11] = test: as above; details: 360 h, rate 125 g/ha, evaluated 15 days later, 100=total damage to plant, 0=no damage to plant
Protocol: as §1

Setaria faberi (SETFA) [12] = test: as above; details: 360 h, rate 125 g/ha, evaluated 15 days later, 100=total damage to plant, 0=no damage to plant
Protocol: as §1

| SMILES | pest or weed control at 250 g/ha [1] | pest or weed control at 250 g/ha (Avena fatua (AVEFA) [2]) | pest or weed control at 250 g/ha [3] | pest or weed control at 250 g/ha [4] | pest or weed control at 250 g/ha (Lolium perenne (LOLPE) [5]) | pest or weed control at 250 g/ha (Setaria faberi (SETFA) [6]) | pest or weed control at 125 g/ha [7] | pest or weed control at 125 g/ha (Avena fatua (AVEFA) [8]) | pest or weed control at 125 g/ha [9] | pest or weed control at 125 g/ha [10] | pest or weed control at 125 g/ha (Lolium perenne (LOLPE) [11]) | pest or weed control at 125 g/ha (Setaria faberi (SETFA) [12]) |
| --- | --- | --- | --- | --- | --- | --- | --- | --- | --- | --- | --- | --- |
| Cc1cc(-c2ccccc2)cc(C)c1C1=C(OC(=O)C(C)(C)C)[C@H]2[C@@H](C1=O)[C@@H]1CC[C@@]2(C)O1 [Compound P8] | 100% | 90% | 100% | 90% | 100% | 100% | 100% | 100% | 100% | 100% | 80% | 100% |
| CCc1cc(-c2ccc(C)cc2)cc(CC)c1C1=C(OC(C)=O)[C@H]2[C@@H](C1=O)[C@@H]1CC[C@H]2O1 [Compound P9] | 50% | 60% | 40% | 100% | 70% | 60% | 80% | 80% | 100% | 100% | 80% | 90% |
| CCc1ccc(-c2ccc(Cl)cc2)cc1C1=C(O)[C@H]2[C@@H](C1=O)[C@@H]1CC[C@H]2O1 [Compound T2] | 70% | 40% | 70% | 90% | 50% | 80% | 100% | 100% | 100% | 100% | 80% | 100% |
| CCc1ccc(-c2ccc(Cl)cc2)cc1C1=C(O)[C@H]2[C@@H](C1=O)[C@]1(C)CC[C@@]2(C)O1 [Compound T3] | 70% | 80% | 100% | 100% | 80% | 100% | 100% | 90% | 90% | 90% | 80% | 90% |
| Cc1cc(-c2ccccc2)cc(C)c1C1C(=O)[C@@H]2[C@H](C1=O)[C@@]1(C)CC[C@]2(C)O1 (stereo partly drawn) [Compound T7] | 90% | 40% | 100% | 100% | 40% | 100% | 70% | 60% | 80% | 100% | 60% | 90% |
| Cc1cc(-c2ccccc2)cc(C)c1C1C(=O)[C@H]2[C@@H]3CC[C@@](C)(O3)[C@H]2C1=O (stereo partly drawn) [Compound T8] | 90% | 50% | 100% | 100% | 80% | 100% | 100% | 90% | 100% | 100% | 70% | 100% |
| CCc1cc(-c2ccc(C)cc2)cc(CC)c1C1C(=O)[C@@H]2[C@H](C1=O)[C@H]1CC[C@@H]2O1 (stereo partly drawn) [Compound T9] | 70% | 50% | 60% | 100% | 80% | 50% | 80% | 20% | 80% | 100% | 80% | 70% |
| CCc1ccc(-c2ccc(Cl)cc2F)cc1C1=C(O)[C@H]2[C@@H](C1=O)[C@@H]1CC[C@H]2O1 [Compound T10] | 70% | 70% | 100% | 100% | 80% | 100% | 90% | 90% | 100% | 100% | 90% | 100% |
| CCc1ccc(-c2ccc(Cl)cc2)cc1C1=C(O)[C@H]2[C@@H](C1=O)[C@]1(C)C=C[C@@]2(C)O1 [Compound T12] | 70% | 20% | 100% | 90% | 60% | 100% | 100% | 100% | 100% | 100% | 80% | 100% |
| CCc1ccc(-c2ccc(Cl)cc2C)cc1C1=C(O)[C@H]2[C@@H](C1=O)[C@@H]1CC[C@H]2O1 [Compound T13] | 40% | 20% | 80% | 70% | 30% | 80% | 50% | 30% | 10% | 100% | 40% | 80% |
| CCc1ccc(-c2ccc(Cl)c(Cl)c2)cc1C1=C(O)[C@H]2[C@@H](C1=O)[C@@H]1CC[C@H]2O1 [Compound T14] | 10% | 20% | 90% | 90% | 40% | 100% | 90% | 80% | 100% | 100% | 30% | 100% |
| CCc1ccc(-c2ccc(Cl)c(OC)c2)cc1C1=C(O)[C@H]2[C@@H](C1=O)[C@@H]1CC[C@H]2O1 [Compound T15] | 20% | 10% | 90% | 100% | 20% | 80% | 100% | 90% | 100% | 100% | 40% | 100% |
| CCc1ccc(-c2ccc(Cl)c(C(F)(F)F)c2)cc1C1=C(O)[C@H]2[C@@H](C1=O)[C@@H]1CC[C@H]2O1 [Compound T17] | 0% | 0% | 90% | 90% | 20% | 80% | 90% | 90% | 100% | 100% | 40% | 100% |
| CCc1ccc(-c2ccc(Cl)s2)cc1C1=C(O)[C@H]2[C@@H](C1=O)[C@@H]1CC[C@H]2O1 [Compound T18] | 50% | 20% | 100% | 90% | 80% | 90% | 100% | 100% | 100% | 100% | 70% | 100% |
| CCc1ccc(-c2ccc(Cl)c(F)c2)cc1C1=C(O)[C@H]2[C@@H](C1=O)[C@@H]1CC[C@H]2O1 [Compound T19] | 70% | 70% | 100% | 90% | 60% | 90% | 100% | 100% | 100% | 100% | 90% | 100% |
